In brackets after ≈: the same amount, converted by molar mass. Values belong to the compound of their own block, whether it stands above or below them.
Legend:
clinically isolated MRSA [1] = assay: Antibacterial potency against clinically isolated MRSA (Test Example 2); format: cell-based, methicillin-resistant Staphylococcus aureus; settings: Staphylococcus aureus, 52 strains of clinically isolated MRSA; for MIC50: concentration inhibiting growth of 50% of the strains (Test Example 2); for MIC90: concentration inhibiting growth of 90% of the strains (Test Example 2)
Procedure: A test on the antibacterial potency against clinically isolated MRSA was conducted in the following way.
(§1) 52 strains of clinically isolated MRSA were used, and MIC was determined for each of the strains according to the standard method of the Japan Chemotherapical Society as in Test Example 1. The minimum growth inhibitory concentration which inhibited growth of 50% of the strains tested was expressed as MIC50 (µg/ml), and the minimum growth inhibitory concentration which inhibited growth of 90% of the strains was expressed as MIC90 (µg/ml).
In this test, FMOX (flomoxef), IPM/CS (imipenem/cilastatin), CMZ (cefmetazole), MINO (minocycline) and DMPPC (methicillin) were used as control agents.

A. calcoaceticos T59 = assay: MIC against standard strains (Test Example 3); format: cell-based; settings: A. calcoaceticos T59 (Test Example 3); read-out: MIC
Procedure: (§2) By using each test strain cultured overnight at 37°C in a Muller-Hinton broth, there was prepared a bacterial solution with a bacterial cell population of 1 x 10^6 CFU/mi of the same bouillon. The bacterial solution was inoculated into the Muller-Hinton agar media each containing respectively one test agent and, after overnight incubation at 37°C, the minimum concentration that inhibited growth of the bacteria was determined and shown as MIC also in Table 1.
(§3) The minimum growth inhibitory concentration was determined for each of the 21 standard strains shown in Table 3, according to the same method as used in Test Example 1.
(§4) In the test, FMOX (flomoxef), CTM (cefotiam) and CEZ (cefazolin) were used as control agents.

A. faecalis ATCC3750 = assay: MIC against standard strains (Test Example 3); format: cell-based; settings: Alcaligenes faecalis; A. faecalis ATCC3750 (Test Example 3); read-out: MIC
Procedure: as §2, §3, §4

B. subtilis ATCC6633 = assay: MIC against standard strains (Test Example 3); format: cell-based; settings: Bacillus subtilis; B. subtilis ATCC6633 (Test Example 3); read-out: MIC
Procedure: as §2, §3, §4

C. freundii ATCC8090 = assay: MIC against standard strains (Test Example 3); format: cell-based; settings: Citrobacter freundii; C. freundii ATCC8090 (Test Example 3); read-out: MIC
Procedure: as §2, §3, §4

E. cloacae ATCC13407 = assay: MIC against standard strains (Test Example 3); format: cell-based; settings: Enterobacter cloacae; E. cloacae ATCC13407 (Test Example 3); read-out: MIC
Procedure: as §2, §3, §4

E. coli CSH2 (RE45) = assay: MIC against standard strains (Test Example 3); format: cell-based; settings: Escherichia coli
Procedure: as §2, §3, §4

E. coli CSH2 (RK1) = assay: MIC against standard strains (Test Example 3); format: cell-based; settings: Escherichia coli
Procedure: as §2, §3, §4

E. coli NIHJ JC-2 = assay: MIC against standard strains (Test Example 3); format: cell-based; settings: Escherichia coli, NIHJJC2; E. coli NIHJ JC-2 (Test Example 3); read-out: MIC
Procedure: as §2, §3, §4

K. pneumoniae IFO3317 = assay: MIC against standard strains (Test Example 3); format: cell-based; settings: Klebsiella pneumoniae; K. pneumoniae IFO3317 (Test Example 3); read-out: MIC
Procedure: as §2, §3, §4

K. pneumoniae No. 42 = assay: MIC against standard strains (Test Example 3); format: cell-based; settings: Klebsiella pneumoniae; K. pneumoniae No. 42 (Test Example 3); read-out: MIC
Procedure: as §2, §3, §4

M. Morganii IFO3848 = assay: MIC against standard strains (Test Example 3); format: cell-based; settings: Morganella morganii; M. Morganii IFO3848 (Test Example 3); read-out: MIC
Procedure: as §2, §3, §4

M. luteus ATCC 9341 = assay: MIC against standard strains (Test Example 3); format: cell-based; settings: Micrococcus luteus, ATCC9341; M. luteus ATCC 9341 (Test Example 3); read-out: MIC
Procedure: as §2, §3, §4

P. aeruginosa NCTC10490 = assay: MIC against standard strains (Test Example 3); format: cell-based; settings: Pseudomonas aeruginosa; P. aeruginosa NCTC10490 (Test Example 3); read-out: MIC
Procedure: as §2, §3, §4

P. mirabilis IFO3849 = assay: MIC against standard strains (Test Example 3); format: cell-based; settings: Proteus mirabilis; P. mirabilis IFO3849 (Test Example 3); read-out: MIC
Procedure: as §2, §3, §4

P. vulugaris OX-19 = assay: MIC against standard strains (Test Example 3); format: cell-based; settings: P. vulugaris OX-19 (Test Example 3); read-out: MIC
Procedure: as §2, §3, §4

S. aureus 167 = assay: MIC against standard strains (Test Example 3); format: cell-based; settings: Staphylococcus aureus; S. aureus 167 (MRSA) (Test Example 3); read-out: MIC
Procedure: as §2, §3, §4

S. aureus 195 = assay: MIC against standard strains (Test Example 3); format: cell-based; settings: Staphylococcus aureus; S. aureus 195 (MRSA) (Test Example 3); read-out: MIC
Procedure: as §2, §3, §4

S. aureus 209p JC-1 = assay: MIC against standard strains (Test Example 3); format: cell-based; settings: Staphylococcus aureus; S. aureus 209p JC-1 (Test Example 3); read-out: MIC
Procedure: as §2, §3, §4

S. aureus Smith = assay: MIC against standard strains (Test Example 3); format: cell-based; settings: Staphylococcus aureus; S. aureus Smith (Test Example 3); read-out: MIC
Procedure: as §2, §3, §4

S. epidemidis IAM1296 = assay: MIC against standard strains (Test Example 3); format: cell-based; settings: S. epidemidis IAM1296 (Test Example 3); read-out: MIC
Procedure: as §2, §3, §4

S. marcescens IAM1184 = assay: MIC against standard strains (Test Example 3); format: cell-based; settings: Serratia marcescens; S. marcescens IAM1184 (Test Example 3); read-out: MIC
Procedure: as §2, §3, §4

clinically isolated MRSA [2] = assay: Antibacterial potency against clinically isolated MRSA (Test Example 4); format: cell-based, methicillin-resistant Staphylococcus aureus; settings: Staphylococcus aureus, MRSA
Procedure: as §1
MIC 50 and MIC 90 were determined for each of the 52 strains of clinically isolated MRSA according to the same method as used in Test Example 2.
VCM (vancomycin) was used as control agent.

Compound: CO[C@@]1(NC(=O)CSCC#N)C(=O)N2C(C(=O)O)=C(CSc3nnnn3C)CS[C@@H]21 [CMZ, cefmetazole, reference compound]
MIC50 (clinically isolated MRSA [1]): 16.8 µg/mL (≈ 35.6 µM)
MIC90 (clinically isolated MRSA [1]): 49.8 µg/mL (≈ 106 µM)

Compound: Cc1nnc(SCC2=C(C(=O)O)N3C(=O)[C@@H](NC(=O)Cn4cnnn4)[C@H]3SC2)s1 [CEZ, cefazolin, reference compound]
MIC (A. calcoaceticos T59): > 100 µg/mL
MIC (A. faecalis ATCC3750): 12.5 µg/mL (≈ 27.6 µM)
MIC (B. subtilis ATCC6633): 0.2 µg/mL (≈ 0.44 µM)
MIC (C. freundii ATCC8090): 3.13 µg/mL (≈ 6.89 µM)
MIC (E. cloacae ATCC13407): > 100 µg/mL
MIC (E. coli CSH2 (RE45)): 1.56 µg/mL (≈ 3.43 µM)
MIC (E. coli CSH2 (RK1)): 3.13 µg/mL (≈ 6.89 µM)
MIC (E. coli NIHJ JC-2): 1.56 µg/mL (≈ 3.43 µM)
MIC (K. pneumoniae IFO3317): 0.78 µg/mL (≈ 1.72 µM)
MIC (K. pneumoniae No. 42): 3.13 µg/mL (≈ 6.89 µM)
MIC (M. Morganii IFO3848): 25 µg/mL (≈ 55 µM)
MIC (M. luteus ATCC 9341): 0.78 µg/mL (≈ 1.72 µM)
MIC (P. aeruginosa NCTC10490): > 100 µg/mL
MIC (P. mirabilis IFO3849): 6.25 µg/mL (≈ 13.8 µM)
MIC (P. vulugaris OX-19): 12.5 µg/mL (≈ 27.5 µM)
MIC (S. aureus 167): 100 µg/mL (≈ 220 µM)
MIC (S. aureus 195): 50 µg/mL (≈ 110 µM)
MIC (S. aureus 209p JC-1): 0.2 µg/mL (≈ 0.44 µM)
MIC (S. aureus Smith): 0.2 µg/mL (≈ 0.44 µM)
MIC (S. epidemidis IAM1296): 0.1 µg/mL (≈ 0.22 µM)
MIC (S. marcescens IAM1184): > 100 µg/mL

Compound: CN[C@H](CC(C)C)C(=O)N[C@H]1C(=O)N[C@@H](CC(N)=O)C(=O)N[C@H]2C(=O)N[C@H]3C(=O)N[C@H](C(=O)N[C@H](C(=O)O)c4cc(O)cc(O)c4-c4cc3ccc4O)[C@H](O)c3ccc(c(Cl)c3)Oc3cc2cc(c3O[C@@H]2O[C@H](CO)[C@@H](O)[C@H](O)[C@H]2O[C@H]2C[C@](C)(N)[C@H](O)[C@H](C)O2)Oc2ccc(cc2Cl)[C@H]1O [VCM, vancomycin, reference compound]
MIC50 (clinically isolated MRSA [2]): 0.74 µg/mL (≈ 0.511 µM)
MIC90 (clinically isolated MRSA [2]): 1.38 µg/mL (≈ 0.952 µM)

Now from value to compound:

MIC50 (clinically isolated MRSA [1]): 0.2 µg/mL (≈ 0.437 µM)
MIC90 (clinically isolated MRSA [1]): 1.5 µg/mL (≈ 3.28 µM)
Compound: CN(C)c1ccc(O)c2c1C[C@H]1C[C@H]3[C@H](N(C)C)C(O)=C(C(N)=O)C(=O)[C@@]3(O)C(O)=C1C2=O [MINO, minocycline, reference compound]

MIC50 (clinically isolated MRSA [1]): 42.5 µg/mL (≈ 112 µM)
MIC90 (clinically isolated MRSA [1]): > 100 µg/mL
Compound: COc1cccc(OC)c1C(=O)N[C@@H]1C(=O)N2[C@@H]1SC(C)(C)[C@@H]2C(=O)O [DMPPC, methicillin, reference compound]
